Patent US20040058952A1, “Urease inhibitors” (Otsuka Pharmaceutical Co., Ltd., priority 2000, published 2004)

What was measured:
[1] = target: Helicobacter pylori urease (Helicobacter pylori, UniProt P69996); test: Urease activity inhibition test (13C-urea, 13C-NMR), Helicobacter pylori urease; format: biochemical
Procedure: (§1) Using ^13C-urea as a substrate, the amount of urea, which is eliminated due to the urease enzyme reaction, was measured with a lapse of time by means of ^13C-NMR. On the basis of an elimination rate (M/sec) of ^13C-urea in the absence of the urease inhibitor sample, the case where the elimination rate in the presence of the sample is reduced to half was calculated as IC50 of the sample.
(Preparation of sample) In a NMR tube having a diameter of 5 mm, Helicobacter pylori urease (manufactured by OTSUKA PHARMACEUTICAL CO., 1.6 units) dissolved in 500 μof a mixed solvent (pH 7) of 400 μl of 0.1M phosphate buffer (pH 7) and 100 μl of DMSO was added and each test compound (urease inhibitor sample) dissolved in 100 μl of ethanol was added, followed by standing at 20° C. for 30 minutes and further standing on an ice bath for 10 minutes. […]
(§2) Each sample was inserted into a probe and the enzyme reaction was conducted at the reaction temperature (temperature of the probe) of 20° C. and the measurement was conducted every 20 seconds after 1 to 4 minutes have passed since the beginning of the reaction, while the measurement was conducted every one minute after 4 or more minutes have passed, using a ^13C-NMR apparatus. Consequently, an elimination rate (M/sec) of a signal (165 ppm) of ^13C-urea as the substrate was determined.

[2] = tested on: Helicobacter pylori ATCC 43504; test: Anti-Helicobacter pylori activity test (dilution method); format: cell-based; details: H. pylori ATCC 43504, 3 days culture, OD660nm; compared with metronidazole (MN), FIG. 3
Procedure: An anti-Helicobacter pylori activity test of the compound as an active ingredient of the present invention was conducted in the following procedure using a dilution method. Helicobacter pylori ATCC 43504 strains were innoculated in a medium in petri dish (Brucella agar (BECTON […]), containing 7% FBS) and then cultured in a mixed carbonic acid gas-nitrogen gas culture medium (10% CO2, 5% O2, 85% N2, 37° C.) for 2 days. The strains were recovered, cultured similarly in a liquid medium using a Brucella broth (BECTON […]) for one day and then diluted with the same medium to control […] to 0.1. The test compound was dissolved in 50% ethanol-saline to prepare a 1 mg/ml solution and the solution was 1- to 2048-fold diluted by 12 steps with the same medium to prepare dilution series. In each well of cell culture plate (20 μl/well), each step wisely diluted solution (20 μl) of the test compound was charged and a Brucella medium (containing 7% FBS) (160 μl) was added, and then a pylori strain solution (20 μl) was finally added.

jack bean urease = target: T1, jack bean urease (Canavalia ensiformis, UniProt P07374); test: Urease activity inhibition test (13C-urea, 13C-NMR), jack bean urease; format: biochemical
T1 construct: purchased
Procedure: as §1, with “sample. […]” for “sample.”
as §2, with “determined. […]” for “determined.”
Using the respective compounds obtained in Reference Examples 2 to 5 as the test compound, the same test (using the jack bean urease) was repeated and IC50 of each test compounds was determined, thus calculating a relative urease inhibitory activity value relative to a standard (1) for the same value of BIT. […]

Sequence of Helicobacter pylori urease (P14916 whole entry): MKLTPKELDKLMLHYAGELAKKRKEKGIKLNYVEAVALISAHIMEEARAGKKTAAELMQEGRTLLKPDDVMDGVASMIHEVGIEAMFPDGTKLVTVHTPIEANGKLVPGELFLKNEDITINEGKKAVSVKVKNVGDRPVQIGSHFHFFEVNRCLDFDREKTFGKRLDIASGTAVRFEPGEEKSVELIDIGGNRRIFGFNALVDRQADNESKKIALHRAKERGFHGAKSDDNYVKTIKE
Sequence of Helicobacter pylori urease (P69996 whole entry): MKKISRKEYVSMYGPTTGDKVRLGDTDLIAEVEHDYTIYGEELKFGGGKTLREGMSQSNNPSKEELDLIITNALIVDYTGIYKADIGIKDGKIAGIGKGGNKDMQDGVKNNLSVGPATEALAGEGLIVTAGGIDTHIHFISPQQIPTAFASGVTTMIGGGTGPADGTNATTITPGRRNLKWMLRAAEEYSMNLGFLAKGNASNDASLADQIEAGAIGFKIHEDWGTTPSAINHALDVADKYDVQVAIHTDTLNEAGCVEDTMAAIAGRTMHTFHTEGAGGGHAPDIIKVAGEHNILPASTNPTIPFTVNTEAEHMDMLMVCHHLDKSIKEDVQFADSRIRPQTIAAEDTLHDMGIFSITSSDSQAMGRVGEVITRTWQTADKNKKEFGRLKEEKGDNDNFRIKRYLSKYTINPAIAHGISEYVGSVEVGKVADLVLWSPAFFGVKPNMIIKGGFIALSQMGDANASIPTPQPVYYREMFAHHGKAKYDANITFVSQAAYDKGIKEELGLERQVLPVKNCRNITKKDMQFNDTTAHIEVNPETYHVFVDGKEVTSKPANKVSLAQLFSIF
T1 sequence (P07374 whole entry, looked up): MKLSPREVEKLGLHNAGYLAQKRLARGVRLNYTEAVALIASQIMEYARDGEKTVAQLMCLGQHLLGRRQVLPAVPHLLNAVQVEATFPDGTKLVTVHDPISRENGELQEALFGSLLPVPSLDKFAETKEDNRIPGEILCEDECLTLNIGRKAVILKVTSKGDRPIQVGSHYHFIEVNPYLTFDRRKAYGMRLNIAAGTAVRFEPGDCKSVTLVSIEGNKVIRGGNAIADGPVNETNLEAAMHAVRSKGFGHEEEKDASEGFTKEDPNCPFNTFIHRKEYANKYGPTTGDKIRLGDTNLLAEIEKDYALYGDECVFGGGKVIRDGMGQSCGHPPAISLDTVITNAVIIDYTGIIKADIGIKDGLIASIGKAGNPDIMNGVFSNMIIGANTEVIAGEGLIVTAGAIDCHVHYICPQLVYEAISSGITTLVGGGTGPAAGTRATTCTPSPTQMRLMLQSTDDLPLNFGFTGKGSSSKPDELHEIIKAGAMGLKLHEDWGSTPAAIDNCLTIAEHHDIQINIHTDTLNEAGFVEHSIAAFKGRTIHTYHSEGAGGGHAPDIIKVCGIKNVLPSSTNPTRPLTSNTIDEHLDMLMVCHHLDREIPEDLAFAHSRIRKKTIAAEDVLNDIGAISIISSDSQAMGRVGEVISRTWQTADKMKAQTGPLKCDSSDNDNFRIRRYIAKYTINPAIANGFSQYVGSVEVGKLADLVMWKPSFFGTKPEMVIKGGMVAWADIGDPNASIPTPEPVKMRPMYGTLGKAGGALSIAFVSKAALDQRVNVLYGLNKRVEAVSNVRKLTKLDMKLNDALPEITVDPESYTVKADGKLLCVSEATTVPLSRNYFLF

SMILES: O=c1[nH]sc2ccccc12 [BIT, 1,2-benzoisothiazol-3 (2H)-one]
- IC50 [1]: 55 µM
- anti-Helicobacter pylori activity (eradication rate) [2]: stronger than that of MN
- IC50 (jack bean urease): 132 µM
